Assays:
[1] = Light-colored SBR-vulcanisate (Example 22): ΔL-color after 3 weeks in diffuse daylight; conditions: 1.0 phr stabilizer; 3 weeks at room temperature in diffuse daylight; scale 0 to 100, 100 = no discoloration; without stabilizer 94
Method: (§1) 100 parts by weight of Cariflex®S-1502 (styrene/butadiene rubber, Shell) are processed at 60° C., in a mixing mill, with 30.0 parts by weight of Kronos®CL 220 [titanium dioxide (pigment), Kronos Titan GmbH], 30.0 parts by weight of Aktisil®MM [kaolin (filler), Hoffmann Mineral, Neuburg/Donau], 5.0 parts by weight of Naftolen®N 401 [plasticizer, Metallgesellschaft], 10.0 parts by weight of zinc oxide [vulcanization activator], 2.0 parts by weight of stearic acid [vulcanization activator], 2.0 parts by weight of sulfur [vulcanizing agent], 1.0 part by weight of Vulkacit®MOZ [vulcanisation accelerator, Bayer], 0.25 part by weight of Vulkacit®Thiuram [vulcanization accelerator, Bayer] and 1.0 part by weight of the stabilizer to be tested according to Table 24, to form a homogeneous mixture, the vulcanization system (sulfur, Vulkacit®MOZ and Vulkacit®Thiuram) not being added until the end of the mixing process. The mixture is vulcanized in electrical vulcanization presses at 150° C. until T95 is reached in the rheometer curves to form elastomer plates 2 mm thick, 21 cm long and 8.0 cm wide.
(§2) The remaining elastomer plates are stored for 3 weeks at room temperature in a standard laboratory atmosphere in diffuse daylight. The ΔL-color of those plates is then determined according to DIN 6167, which corresponds to a scale of from 0 to 100. No discoloration is indicated by a value of 100.

[2] = Light-colored SBR-vulcanisate, ozone atmosphere for 96 hours: crack formation; set-up: key: grade 0: Grade 0 denotes no cracks; grade 1 denotes narrow flat cracks; grade 2 denotes moderately broad, moderately deep cracks, clearly visible; grade 3 denotes broad and deep cracks; conditions: 2.0 phr stabilizer, ozone 50 pphm, 40° C., dynamic elongation, without stabilizer grade 2
Method: as §1, with “[plasticiser,” for “[plasticizer,”, “[vulcanization” for “[vulcanisation”, “[…],” for “Bayer] and 1.0 part by weight of the stabilizer to be tested according to Table 24,”
Some of the elastomer plates so obtained are tested for the action of ozone according to the ASTM standard D 3395-86 while subject to dynamic elongation. In this test the plates are first stored for 30 days in a standard atmosphere [23/50 SN-ISO 291]. Test specimens measuring 20 cm by 1 cm are then punched out and exposed to an ozone atmosphere for 96 hours (ozone content: 50 pphm; temperature: 40° C.; humidity: 50% rel.; elongation: 0 to 25%; elongation rate: 0.5 Hz; number of load cycles: approximately 173 000). The test plates are then assessed for crack formation according to ASTM D 3395-86. Grade 0 denotes no cracks; grade 1 denotes narrow flat cracks; grade 2 denotes moderately broad, moderately deep cracks, clearly visible; grade 3 denotes broad and deep cracks. The lower the grade number, the better the stabilization of the elastomer plates.

[3] = Light-colored SBR-vulcanisate (Example 23): ΔL-color after 3 weeks in diffuse daylight; conditions: 2.0 phr stabilizer; 3 weeks at room temperature in diffuse daylight; scale 0 to 100, 100 = no discoloration; without stabilizer 97
Method: as §1, with “[plasticiser,” for “[plasticizer,”, “[vulcanization” for “[vulcanisation”, “[…],” for “Bayer] and 1.0 part by weight of the stabilizer to be tested according to Table 24,”
as §2

[4] = Light-colored SBR-vulcanisate, ozone atmosphere for 48 hours: crack formation; set-up: key: grade 0: Grade 0 denotes no cracks; grade 1 denotes narrow flat cracks; grade 2 denotes moderately broad, moderately deep cracks, clearly visible; grade 3 denotes broad and deep cracks; conditions: 1.0 phr stabilizer, ozone 50 pphm, 40° C., dynamic elongation, without stabilizer grade 1-2
Method: as §1
Some of the elastomer plates so obtained are tested for the action of ozone according to the ASTM standard D 3395-86 while subject to dynamic elongation. […] The test plates are then assessed for crack formation according to ASTM D 3395-86. […]

[5] = Stabilization of polyethylene during processing (Brabender plastograph); conditions: 0.05 part compound and 0.05 part Irganox 1010 per 100 parts polyethylene; 220° C., 50 rpm; without compound 9.7
Method: 100 parts of polyethylene powder (Lupolen®5260 Z) are blended with 0.05 part of Irganox®1010 (pentaerythritol tetrakis[3-(3,5-di-tert-butyl-4-hydroxyphenyl)propionate]) and 0.05 part of a compound of Table 5 and the blend is kneaded in a Brabender plastograph at 220° C. and 50 rpm. During this time the kneading resistance is recorded continuously as torque. In the course of the kneading time the polymer begins to crosslink after prolonged constancy, as can be determined by the rapid increase in torque. The time taken until a marked increase in torque is shown in Table 5 as a measure of the stabilizing action. The longer this time is the better the stabilizing action.

[6] = Stabilization of multiple-extruded polypropylene; conditions: 0.05% of compound; heating zones 260, 270, 280° C.; measured at 230° C./2.16 kg; without compound 17.5
Method: 1.3 kg of polypropylene powder (Profax 6501), which has been prestabilized with 0.025% of Irganox®1076 (n-octadecyl 3-[3,5-di-tert-butyl-4-hydroxyphenyl]propionate) (melt index 3.2 g/10 min, measured at 230° C./2.16 kg) are blended with 0.05% of Irganox®1010 (pentaerythritol tetrakis[3-(3,5-di-tert-butyl-4-hydroxyphenyl)propionate]), 0.05% of calcium stearate, 0.03% of DHT 4A® (Kyowa Chemical Industry Co., Ltd., [Mg4.5Al2(OH)13CO3.3.5H2O]) and 0.05% of compound of Table 4. This blend is then extruded in an extruder having a cylinder diameter of 20 mm and a length of 400 mm at 100 rpm, the 3 heating zones being adjusted to the following temperatures: 260, 270, 280° C. The extrudate is cooled by drawing it through a water bath and is then granulated. This granulate is repeatedly extruded. After 3 extrusions, the melt index is measured (at 230° C./2.16 kg). A substantial increase in the melt index denotes pronounced chain degradation, i.e. poor stabilization.

[7] = Discoloration of powder coatings based on a carboxy-functional polyester cured in electric and gas ovens; conditions: total 0.60% stabilizers rel. to components 1 to 5
Method: To prepare the powder coating composition based on a carboxy-functional polyester, components 1 to 6 (formulation without additives) or components 1 to 7 (formulation containing the stabilizers) are employed in the sequence indicated (cf. Table 13).
The components weighed out in this way are mixed using a planetary stirrer. The mixture is then extruded on a prism extruder at 300 revolutions/minute and at 100° C. and is rolled out. The powder coating composition is coarsely comminuted using a bench cutter and is ground in a Retsch ZM-1 ultracentrifugal mill with a 0.75 mm annular-perforation screen at 15,000 revolutions/minute. Finally, the powder is passed through a 30 μm screen on a centrifugal screening machine.
The finished powder coating composition is sprayed electrostatically to a coat thickness of 70 μm onto aluminium panels using an ESB-Wagner corona cup gun at 60 kV. Some of the coated panels are cured at 180° C. for 90 minutes in an electric oven. The remaining coated panels are cured at 180° C. for 45 minutes in a gas oven with an NO2 content of 20 ppm. The yellowness index (YI) of the samples is determined in accordance with ASTM D 1925-70. Low YI values denote little discoloration, high YI values denote severe discoloration of the samples.

[8] = Stabilization of polycarbonate (yellowness index of extruded granulate); conditions: 0.05% stabilizer; granulate after extrusion at a maximum of 280° C.; without stabilizer 10.3
Method: 1.0 kg of a polycarbonate powder which has been dried for 8 hours at 120° C. in a vacuum drying oven (Lexan®145, of General Electric) is charged with the stabilizers listed in Table 22 and is then mixed for 2 minutes in a Henschel mixer. This mixture is then extruded in a Schwabenthan extruder at a maximum of 280° C. The polymer string is then granulated. The granulate so obtained is packed into 1 cm thick polystyrene boxes and the yellowness index (YI) is determined according to ASTM D 1925-70. Low YI values denote little discoloration, high YI values high discoloration of the samples. […]

[9] = Stabilization of polycarbonate (oven ageing at 135° C., yellowness index and transmission); conditions: 0.05% stabilizer
Method: This mixture is then extruded in a Schwabenthan extruder at a maximum of 280° C. The polymer string is then granulated. Using an injection moulding machine, plates having a layer thickness of 2 mm are then moulded from the granulate so obtained at a maximum of 300° C. […] Low YI values denote little discoloration, high YI values high discoloration of the patterns. […] The results are compiled in Tables 17 and 18.

[10] = Stabilization of multiple-extruded polypropylene at high temperature; set-up: unit not given here; conditions: stabilizer 0.100% by weight, measured at 230° C./2.16 kg
Method: This blend is then extruded in an extruder having a cylinder diameter of 20 mm and a length of 400 mm at 100 rpm, the 3 heating zones being adjusted to the following temperatures: 280, 320, 340° C. The extrudate is cooled by drawing it through a water bath and is then granulated. This granulate is repeatedly extruded. […] A substantial increase in the melt index denotes pronounced chain degradation, i.e. poor stabilization.

[11] = Stabilization of polycarbonate (time at 135° C. until YI = 20); conditions: 0.05% stabilizer; without stabilizer 1560
Method: 1.0 kg of a polycarbonate powder which has been dried for 8 hours at 120° C. in a vacuum drying oven (Lexan®145, of General Electric) is charged with the stabilizers listed in Table 19 and is mixed for 2 minutes in a Henschel mixer. This mixture is then extruded in a Schwabenthan extruder at a maximum of 280° C. The polymer string is then granulated. Using an injection moulding machine, plates having a layer thickness of 2 mm are then moulded from the granulate so obtained at a maximum of 300° C. These plates are then aged in a circulating air oven at 135° C., the time in hours until the yellowness index (YI) reaches a value of 20 according to ASTM D 1925-70 being measured. […]

SMILES: CC(C)(C)c1cc2c(c(C(C)(C)C)c1)OC(=O)C2c1cc(C#N)cc(C#N)c1 (stereo not drawn) [Compound (108)]
- ΔL-color according to DIN 6167 [1]: 96
- Crack formation according to ASTM D 3395-86 [2]: grade 1
- ΔL-color according to DIN 6167 [3]: 95
- Crack formation according to ASTM D 3395-86 [4]: grade 0-1

SMILES: CCCCCCCCOC(=O)c1ccc(C2C(=O)Oc3c2cc(C(C)(C)C)cc3C(C)(C)C)cc1 (stereo not drawn) [Compound (110), 5,7-di-tert-butyl-3-(4-n-octyloxycarbonylphenyl)-3H-benzofuran-2-one]
- Time until increase in torque [5]: 27.5 min
- Melt index after 3 extrusions [6]: 4.7
- Yellowness index after 90 minutes (ASTM D 1925-70) ([7]; Curing for 45 minutes in a gas oven at 180° C., NO2 content 20 ppm, without stabilizer 4.2): 3.4
- Yellowness index after 90 minutes (ASTM D 1925-70) ([7]; Curing for 90 minutes in an electric oven at 180° C., without stabilizer 3.1): 2.7

SMILES: Cc1cc(OP(Oc2cc(C)c(C(C)(C)C)cc2C(C)(C)C)c2ccc(-c3ccc(P(Oc4cc(C)c(C(C)(C)C)cc4C(C)(C)C)Oc4cc(C)c(C(C)(C)C)cc4C(C)(C)C)cc3)cc2)c(C(C)(C)C)cc1C(C)(C)C [GSY ®P101]
- Yellowness index [8]: 5.1

SMILES: CC(C)(C)c1ccc(OP(Oc2ccc(C(C)(C)C)cc2C(C)(C)C)Oc2ccc(C(C)(C)C)cc2C(C)(C)C)c(C(C)(C)C)c1 [Irgafos ®168, tris(2,4-di-tert-butylphenyl)phosphite, reference compound]
- Yellowness index prior to oven-ageing ([9]; 2 mm plates, ASTM D 1925-70): 3.4
- Transmission in % prior to oven-aging ([9]; at 450 nm): 84.7%
- Transmission in % after 2000 hours at 135° C. ([9]; at 450 nm, without stabilizer 76.4): 77.8%
- Yellowness index after 2000 hours at 135° C. ([9]; circulating air oven, without stabilizer 25.0): 23.5
- Melt index after 5 extrusions ([10]; 280° C.): 9.7
- Melt index after 5 extrusions ([10]; 320° C.): 43.8
- Melt index after 5 extrusions ([10]; 340° C.): 80.1
- Time in hours at 135° C. to YI = 20 [11]: 2000 h

SMILES: CC(C)Nc1ccc(Nc2ccccc2)cc1 [Vulkanox ® 4010, 4-isopropylamino-diphenylamine, reference compound]
- ΔL-color according to DIN 6167 [1]: 70
- Crack formation according to ASTM D 3395-86 [2]: grade 0
- ΔL-color according to DIN 6167 [3]: 56
- Crack formation according to ASTM D 3395-86 [4]: grade 0

From patent publication US6809208B2, “3-Arylbenzofuranones with electron-withdrawing substituents as stabilizers” (Ciba Specialty Chemicals Corporation, priority 2000, dated 2004)
